Test results published in US8772499B2, “TRPV3 modulators” (AbbVie Inc., priority 2011, dated 2014).

molecular target: T1, human TRPV3 (Homo sapiens, UniProt Q8NET8); assay: In vitro antagonism of recombinant human TRPV3 activation (FLIPR Tetra calcium assay); type: cell-based; conditions: HEK293 cells stably expressing human TRPV3; agonist 2-APB at 80 μM; actual measured value shown parenthetically; in most cases average of at least two runs; read-out: IC50
T1 construct: expressed in transfected cells
T1 sequence (Q8NET8 1-790): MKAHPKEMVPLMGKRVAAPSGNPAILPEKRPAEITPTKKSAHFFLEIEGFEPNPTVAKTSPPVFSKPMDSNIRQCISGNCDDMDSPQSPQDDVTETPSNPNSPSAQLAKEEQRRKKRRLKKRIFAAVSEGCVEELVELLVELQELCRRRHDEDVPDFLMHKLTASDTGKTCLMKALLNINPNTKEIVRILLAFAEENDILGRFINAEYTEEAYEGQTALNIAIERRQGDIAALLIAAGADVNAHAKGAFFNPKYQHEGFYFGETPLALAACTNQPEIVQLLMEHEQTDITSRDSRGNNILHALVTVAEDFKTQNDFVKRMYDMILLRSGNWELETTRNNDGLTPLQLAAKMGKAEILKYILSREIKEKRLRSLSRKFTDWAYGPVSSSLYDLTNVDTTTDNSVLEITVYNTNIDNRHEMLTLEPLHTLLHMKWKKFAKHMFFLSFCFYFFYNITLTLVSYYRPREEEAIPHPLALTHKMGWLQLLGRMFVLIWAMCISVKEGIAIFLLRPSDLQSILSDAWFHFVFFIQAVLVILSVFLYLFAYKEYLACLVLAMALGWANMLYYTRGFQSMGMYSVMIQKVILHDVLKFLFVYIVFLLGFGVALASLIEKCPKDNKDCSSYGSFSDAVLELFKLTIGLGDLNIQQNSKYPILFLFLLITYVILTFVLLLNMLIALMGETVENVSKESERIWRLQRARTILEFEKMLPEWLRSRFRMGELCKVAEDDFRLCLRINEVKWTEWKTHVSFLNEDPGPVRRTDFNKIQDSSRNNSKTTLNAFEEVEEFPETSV
Method: Test compounds were evaluated for ability to antagonize the activation of recombinant human TRPV3 using FLIPR® Tetra cellular screening. Specifically, on the day prior to the experiment recombinant HEK293 cells that stably express human TRPV3 were removed from tissue culture flasks and plated in growth medium at 20,000 cells/well into Poly-d-lysine coated black/clear 384-well Plate (Corning, 3845) using a Multidrop® dispenser (ThermoScientific, Waltham, Mass.). Prior to the start of the assay, the medium was removed by aspiration, and cells were loaded with 30 μL no-wash FLIPR® Calcium-4 dye (λEX=470-495 nm, λEM=515-575 nm; Molecular Devices, Sunnyvale, Calif.). The cells were then incubated for 90-120 minutes in the dark prior to addition of the test compound.
A double-addition protocol was used. The test compound (i.e., the TRPV3 antagonist) was added at the 10 second time point, followed by the addition of a TRPV3 agonist three minutes later. Each test compound evaluated was first dissolved in DMSO to prepare a 10 mM stock solution. A solution (5×) of the test compound was then prepared in DPBS (Dulbecco's Phosphate Buffered Saline) and 10 μl, of that solution was added to the cells at a delivery rate of 40 μL/sec. The TRPV3 agonist used to activate human TRPV3 expressed by the […] was 2-aminoethoxy-diphenyl borate (2-APB; Tocris Cookson, Ellisville, Mo.) at 80 μM. Final assay volume was 50 μl, Total length of an experimental run was 10 minutes.
Changes in fluorescence were measured over time using the FLIPR® instrument. The intensity of the fluorescence was captured and digitally transferred to an interfaced computer. The maximum response minus minimum response was calculated and expressed as the percentage of the maximum 2-APB response in the absence of antagonist. The concentration of 2-APB corresponds to its EC80.
Table 1 reports the IC50 values measured for the test compounds as human TRPV3 antagonists. […] Actual measured values are shown parenthetically after the reported range. In most cases, the values reported are average values from at least two runs (i.e., n≧2).

IC50 [µM]	Structure (SMILES)
1.75	CC(c1ccc(C(F)(F)F)cc1)C1(C(O)c2ccccn2)CCC1 (stereo not shown) [Example 53, pyridin-2-yl(1-{1-[4-(trifluoromethyl)phenyl]ethyl}cyclobutyl)methanol]
1.97	O=C1CC(c2ccc(OC(F)(F)F)cc2)([C@H](O)c2ccccn2)C1 (single isomer, unassigned) [Example 251]
> 20	COc1ccc(C2(C(O)c3ccccn3)CCOC2)cc1OC (stereo not shown) [Example 84, [3-(3,4-dimethoxyphenyl)tetrahydrofuran-3-yl](pyridin-2-yl)methanol]
2.13	OC(CC1(c2cccc(F)c2)CCC1)c1ccccn1 (stereo not shown) [Example 71, 2-[1-(3-fluorophenyl)cyclobutyl]-1-(pyridin-2-yl)ethanol]
3.68	OC(CC1(c2ccccc2)CCC1)c1ccccn1 (stereo not shown) [Example 68, 2-(1-phenylcyclobutyl)-1-(pyridin-2-yl)ethanol]
8.5	OC(c1ncccn1)C1(c2cccc(F)c2)CCC1 (stereo not shown) [Example 33, [1-(3-fluorophenyl)cyclobutyl](pyrimidin-2-yl)methanol]
> 20	OC(c1ccccn1)C1(C2=CCOCC2)CCC1 (stereo not shown) [Example 252, [1-(3,6-dihydro-2H-pyran-4-yl)cyclobutyl](pyridin-2-yl)methanol]
0.95	CC1(O)CC(c2ccnc(C(F)(F)F)c2)(C(O)c2ccccn2)C1 (single isomer, unassigned) [Example 302]
> 20	N#Cc1cccc(C2(C(O)c3ccccn3)CCOC2)c1 (stereo not shown) [Example 81, 3-{3-[hydroxy(pyridin-2-yl)methyl]tetrahydrofuran-3-yl}benzonitrile]
3.08	OC(c1ncccn1)C1(c2ccc(OC(F)(F)F)cc2)CCC1 (stereo not shown) [Example 31, pyrimidin-2-yl{1-[4-(trifluoromethoxy)phenyl]cyclobutyl}methanol]
3.31	NC1CCCCC1C(O)C1(c2cccc(OC(F)(F)F)c2)CCC1 (stereo not shown) [Example 210, (2-aminocyclohexyl) {1-[3-(trifluoromethoxy)phenyl]cyclobutyl}methanol]
> 20	N#Cc1ccc(C2(C(O)c3ccccn3)CCOC2)cc1 (stereo not shown) [Example 79, 4-{3-[hydroxy(pyridin-2-yl)methyl]tetrahydrofuran-3-yl}benzonitrile]
6.17	NC1CCCCC1C(O)C1(c2ccc(Cl)c(Cl)c2)CCC1 (stereo not shown) [Example 211, (2-aminocyclohexyl)[1-(3,4-dichlorophenyl)cyclobutyl]methanol]
3.56	OC(c1ccccn1)C1(c2cccc(Cl)c2)COC1 (stereo not shown) [Example 86, [3-(3-chlorophenyl)oxetan-3-yl](pyridin-2-yl)methanol]
10.2	OC(c1ncccn1)C1(c2ccc(F)c(F)c2)CCC1 (stereo not shown) [Example 35, [1-(3,4-difluorophenyl)cyclobutyl](pyrimidin-2-yl)methanol]
3.07	N[C@H]1CCC[C@@H]1[C@H](O)C1(c2ccc(Cl)c(Cl)c2)CCC1 [Example 219, (S)-[(1S,2S)-2-aminocyclopentyl][1-(3,4-dichlorophenyl)cyclobutyl]-methanol]
2.24	OC(CC1(c2cccc(Cl)c2)CCC1)c1ccccn1 (stereo not shown) [Example 72, 2-[1-(3-chlorophenyl)cyclobutyl]-1-(pyridin-2-yl)ethanol]
5.18	OC(c1ncccn1)C1(c2ccccc2OC(F)(F)F)CCC1 (stereo not shown) [Example 36, pyrimidin-2-yl{1-[2-(trifluoromethoxy)phenyl]cyclobutyl}methanol]
2.34	OC(c1ccccn1)C1(c2ccc(Cl)cc2)CCOCC1 (stereo not shown) [Example 64, [4-(4-chlorophenyl)tetrahydro-2H-pyran-4-yl](pyridin-2-yl)methanol]
4.97	OC(CC1(c2ccc(Cl)cc2)CCC1)c1ccccn1 (stereo not shown) [Example 69, 2-[1-(4-chlorophenyl)cyclobutyl]-1-(pyridin-2-yl)ethanol]
3.56	OC(c1ccccn1)C1(c2ccc(C(F)(F)F)cc2)CCOC1 (stereo not shown) [Example 78, pyridin-2-yl{3-[4-(trifluoromethyl)phenyl]tetrahydrofuran-3-yl}methanol]

same assay, conditions: HEK293 cells stably expressing human TRPV3; agonist 2-APB at 80 μM; reported range; read-out: IC50 (range class)

IC50 [µM]	Structure (SMILES)
> 20	COc1ccc(C2(C(O)c3ccccn3)CCOC2)cc1OC (stereo not shown) [Example 84, [3-(3,4-dimethoxyphenyl)tetrahydrofuran-3-yl](pyridin-2-yl)methanol]
> 20	OC(c1ccccn1)C1(C2=CCOCC2)CCC1 (stereo not shown) [Example 252, [1-(3,6-dihydro-2H-pyran-4-yl)cyclobutyl](pyridin-2-yl)methanol]
> 20	N#Cc1cccc(C2(C(O)c3ccccn3)CCOC2)c1 (stereo not shown) [Example 81, 3-{3-[hydroxy(pyridin-2-yl)methyl]tetrahydrofuran-3-yl}benzonitrile]
> 20	N#Cc1ccc(C2(C(O)c3ccccn3)CCOC2)cc1 (stereo not shown) [Example 79, 4-{3-[hydroxy(pyridin-2-yl)methyl]tetrahydrofuran-3-yl}benzonitrile]
